Laboratory results taken from US11135340B2, “Compositions and methods for preparation of composite polymer coatings on medical implants, and their use for co-delivery of multiple antimicrobial agents” (THE JOHNS HOPKINS UNIVERSITY, priority 2016, dated 2021).
Like-named read-outs stand apart in the source and are kept apart here.

Key:
[1] = In vitro release of antibiotics from composite coatings on titanium K-wire implants; type: physicochemical; settings: for Day 1 release of Gentamicin: of total loading; for release kinetics after storage: coated pins stored 6 weeks room temperature, 6 weeks −20° C. or 8 months frozen, vs fresh
Procedure: The release rate of the polymer composite film was measured by HPLC. Drug release studies were conducted using coated pins created with the same loading parameters as those used for later in vivo testing (10% (w/w) drug combinations) electrospun for 60 seconds at injection rates of 0.5 mL/h from each needle. Release rate of antibiotics from the composite polymer coating was characterized by placing coated pins in 200 μL pH 7.4 PBS buffer and incubating at 37° C. in an aluminum film-covered incubator to prevent possible light-induced drug degradation. Release media was changed at fixed time points over a period of two weeks and stored in a −20° C. freezer until analysis. Drug concentrations in release media for each day were determined via reverse-phase HPLC using a C-18 column in an Alliance HPLC system and Waters 2996 PDA detector. The mobile phase was a mixture of acetonitrile and water both mixed with 0.1% TFA acid, which was run at a gradient from (15%/85%) to (40%/60%) for a total runtime of 15 minutes per sample for the elution of Van/Rif and Lin/Rif drug loading groups. Elution of the Dap/Rif loading group was conducted using a mobile phase of (49%/51%) of acetonitrile and water both mixed with 0.1% TFA acid for a total run time of 11 minutes per sample. Concentrations of the drugs were quantified using wavelengths of 343 nm for Rif, 254 nm for Lin, 280 nm for Van and 223 nm for Dap using prepared standard curves for all three drugs. […] Quantification was performed through the derivatization of Gentamicin with ninhydrin at 95° C. for 15 minutes and detection with a Biotek Synergy2 plate reader.
Drug release studies were conducted using coated pins created with the same loading parameters as detailed above. Release kinetics of antibiotics from the composite coating were characterized by placing coated pins in 200 μL of phosphate buffer saline (PBS, pH 7.4) at 37° C. Release media was changed daily over a period of two weeks and stored at −20° C. until analysis. Drug concentrations in release media were measured on days 1, 2, 3, 5, 7, 10 and 14 using a Waters Alliance 2690 HPLC system (Waters Corporation, Milford, Mass.) equipped with an Accucore RP-MS C18 column (100 mm×2.1 mm; Thermo Fisher Scientific) and a Waters 2996 PDA detector. The elution was carried out with a mobile phase of water and acetonitrile both mixed with 0.1% TFA at a flow rate of 1 mL/min at ambient temperature using a linear gradient elution program of 85% water to […] in 15 minutes. Concentrations of the drugs were quantified using wavelengths for Van (280 nm), Lin (254 nm), Dap (224 nm) and Rif (263 nm).

XEN36 = assay: MIC of XEN36 for each antibiotic; type: cell-based, Staphylococcus aureus; settings: S. aureus XEN36
S. aureus = assay: In vitro zone of inhibition assay of coated K-wires; type: cell-based, Staphylococcus aureus; settings: any of the storage conditions vs freshly prepared coatings
Description: A zone of inhibition assay was used as an additional assay to evaluate the in vitro release of antibiotic(s) from the composite coating. Tryptic soy agar bacterial plates were inoculated with S. aureus bacteria cells to yield a bacterial lawn after overnight culture. After bacterial inoculation and before culturing the plates, two identical titanium K-wires loaded with either 10 w/w % Lin, 10 w/w % Van, or 10 w/w % Dap alone, or in combination with Rif were placed in two separate areas on the plate. After culturing the plates at 37° C. for 24 hours, the antimicrobial activity of the eluded antibiotic(s) into the agar was measured as a zone of inhibition (diameter [mm]) of the bacterial growth around the K-wire.
Long-term efficacy of the antimicrobial activity was tested by storing electrospun pins at room temperature for 6 weeks, −20° C. for 6 weeks, and −80° C. for 8 months. Coated pins were protected from light during storage. These pins were then used in the same zone of inhibition assay as described hereinabove. These antimicrobial results were further confirmed with a two-week in vitro release study to determine release kinetics after storage.
Tryptic soy agar (TSA) bacterial plates were inoculated with S. aureus to yield a bacterial lawn after overnight culture. Before culturing the plates, two titanium K-wires each loaded with the same combination of antibiotics from each set were placed in two separate areas on the plate. After culturing at 37° C. for 24 hours, the zone of inhibition (ZOI) (diameter/mm) of bacterial growth were measured.

[2] = test system: S. aureus bioluminescent strain Xen36; assay: Mouse model of prosthetic joint infection: in vivo bioluminescence imaging and CFU; parameters: species or system mice; settings: intravenous prophylaxis 110 mg/kg at −1 and 16 hours
[3] = In vivo release kinetics of ICG from PCL coating by fluorescence imaging; parameters: species or system mice; settings: ICG loaded PCL coating on K-wire in mouse femur
Description: FIG. 9A and FIG. 9B show in vivo release kinetics as measured by PCL coatings impregnated with a near-infrared (NIR) fluorescent dye Indocyanine green (ICG) as a surrogate for the antibiotic loaded coatings.
The near-infrared (NIR) fluorescence imaging dye indocyanine green (ICG) was used as a surrogate model for drug loading and release in an established mouse model (described in Example 4) to monitor the in vivo release kinetics from PCL coating (FIG. 9A and FIG. 9B). ICG loaded PCL was coated onto titanium K-wire (described in Example 1). The implants were surgically placed in a retrograde fashion with 1 mm protruding into the joint space of mice. The release of ICG was measured by its fluorescence intensity at different time points.

[4] = Staphylococcus aureus, read-out: MIC

Gentamicin
Gentamicin release profile ([1]; 50:50 PLGA): sustained release
Gentamicin release profile ([1]; 75:25 PLGA): only a burst release
release of Gentamicin above the MIC ([1]; controlled by polymer choice (PLA:PGA ratio of PLGA)): 2 to 14 days
Day 1 release of Gentamicin ([1]; PLGA nanofibers alone): 80%
Day 1 release of Gentamicin ([1]; PLGA nanofibers embedded in PCL film layer): less than 45%
Gentamicin MIC concentration sustained ([1]; release from PLGA nanofibers of composite coating, FIG. 11A): up to 14 days
MIC (XEN36): roughly 10 μg/mL

CN[C@H](CC(C)C)C(=O)N[C@H]1C(=O)N[C@@H](CC(N)=O)C(=O)N[C@H]2C(=O)N[C@H]3C(=O)N[C@H](C(=O)N[C@H](C(=O)O)c4cc(O)cc(O)c4-c4cc3ccc4O)[C@H](O)c3ccc(c(Cl)c3)Oc3cc2cc(c3O[C@@H]2O[C@H](CO)[C@@H](O)[C@H](O)[C@H]2O[C@H]2C[C@](C)(N)[C@H](O)[C@H](C)O2)Oc2ccc(cc2Cl)[C@H]1O [Van, vancomycin]
antimicrobial activity (zone of inhibition) after storage (S. aureus): no significant loss of antimicrobial activity
BLI signals [2]: decreased BLI signals
clearance of infection (CFU from bone/joint tissue and implants) [2]: the infection was not cleared
release kinetics after storage [1]: no difference in the release kinetics
MIC (XEN36; [4]): 0.5 µg/mL

CC(=O)NC[C@H]1CN(c2ccc(N3CCOCC3)c(F)c2)C(=O)O1 [Lin, linezolid]
antimicrobial activity (zone of inhibition) after storage (S. aureus): no significant loss of antimicrobial activity
release kinetics after storage [1]: no difference in the release kinetics
MIC (XEN36; [4]): 2 µg/mL

CO[C@H]1/C=C/O[C@@]2(C)Oc3c(C)c(O)c4c(O)c(c(/C=N/N5CCN(C)CC5)c(O)c4c3C2=O)NC(=O)/C(C)=C\C=C\[C@H](C)[C@H](O)[C@@H](C)[C@@H](O)[C@@H](C)[C@H](OC(C)=O)[C@@H]1C [Rif, Rifampin]
antimicrobial activity (zone of inhibition) after storage (S. aureus): no significant loss of antimicrobial activity
release of Rif out of the composite film coating after storage (reduced or not) ([1]; pins stored at −20° C.): not when the pins were stored at −20 °C
release of Rif out of the composite film coating after storage ([1]; storage at room temperature for six weeks): reduced
Rif remains above the MIC ([1]; tuned by PCL molecular weight or PCL layer thickness): 2 to 5 days
MIC (XEN36; [4]): 0.5 µg/mL

CC1(C)C(/C=C/C=C/C=C/C=C2\N(CCCCS(=O)(=O)O)c3ccc4ccccc4c3C2(C)C)=[N+](CCCCS(=O)(=O)[O-])c2ccc3ccccc3c21 [ICG, indocyanine green]
duration of ICG release [3]: over two weeks
peak dissolution of ICG [3]: 1 days

CCCCCCCCCC(=O)N[C@@H](Cc1c[nH]c2ccccc12)C(=O)N[C@H](CC(N)=O)C(=O)N[C@@H](CC(=O)O)C(=O)N[C@@H]1C(=O)NCC(=O)N[C@@H](CCCN)C(=O)N[C@@H](CC(=O)O)C(=O)N[C@H](C)C(=O)N[C@@H](CC(=O)O)C(=O)NCC(=O)N[C@H](CO)C(=O)N[C@@H]([C@H](C)CC(=O)O)C(=O)N[C@@H](CC(=O)c2ccccc2N)C(=O)O[C@@H]1C [Dap, daptomycin]
antimicrobial activity (zone of inhibition) after storage (S. aureus): no significant loss of antimicrobial activity
release kinetics after storage [1]: no difference in the release kinetics
MIC (XEN36; [4]): 0.25 µg/mL
